According to patent US20260327655A1, “SMALL-MOLECULE REGULATED ALTERNATIVE SPLICING” (priority 2023, published 2026):

What was measured:
[1] = tested on: RS2-3 minigene (Firefly Luciferase), HEK-293T cells; assay: Luciferase induction assay, RS2-3 with splice modulator compounds in HEK-293T cells; type: cell-based; conditions: Homo sapiens, 18 hours, n of 3, read-out: Mean fold-induction of luciferase (relative to vehicle control)
[2] = tested on: RS3-13 minigene (Firefly Luciferase), HEK-293T cells; assay: Luciferase induction assay, RS3-13 with splice modulator compounds in HEK-293T cells; type: cell-based; conditions: Homo sapiens, 18 hours, n of 3, read-out: Mean fold-induction of luciferase (relative to vehicle control)
RS1-10, HEK-293T cells = assay: RS1-10 performance in HEK-293T cells; type: cell-based, human; conditions: CMV promoter, 18 hours, FIG. 10A
Method: (§1) Human cell line HEK-293T cells or NIH-3T3 mouse fibroblast cell line cells were cultured in DMEM+10% FBS, collected after trypsinization, and then dispensed into 96-well plates (cell culture-treated). Each well of the plate was seeded with 1.0×10^5 cells in 100 μL culture medium. After a 1-hour incubation in the tissue culture incubator (5% CO2, 37 degrees C.), plasmid DNA was complexed with a transfection reagent, such as Lipofectamine 3000, and added to respective wells on the plate. Each well received an equivalent of 100 ng of plasmid DNA complexed with 0.15 μL Lipofectamine 3000. Triplicate wells were used for each condition tested in the experiment. The plasmid utilized in the experiments for HEK-293T cells and NIH-3T3 mouse fibroblast cells encoded a CMV promoter upstream of the RS1-10 construct that controlled the expression of a Firefly Luciferase gene followed by a SV40 polyadenylation signal. After a 10-minute incubation at room temperature, either DMSO vehicle or 24 A at specified doses was added to the wells of the plate. Plates were then incubated for 18 hours in a tissue culture incubator. Endpoint analysis was performed by adding 100 uL of a Luciferase substrate, such as Steady-Luc Firefly Luciferase substrate, to each well of the assay plate. […] Finally, the luminescent signal from each well was measured with a plate reader. […]

RS1-10, NIH-3T3 cells = assay: RS1-10 performance in NIH-3T3 cells; type: cell-based, mouse; conditions: CMV promoter, 18 hours, FIG. 10B
Method: as §1

## CCN1CC(c2ccc(-c3ccc(-c4ccc5nn(C)cc5c4)cc3O)nn2)C1 [Compound 24A, 2-[6-(1-ethylazetidin-3-yl)pyridazin-3-yl]-5-(2-methyl-2H-indazol-5-yl)phenol]
[1]; RS2-3, 100 nM
  fold induction at 0.1 µM: 14.5
[1]; RS2-3, 1,000 nM
  fold induction at 1 µM: 42.6
[2]; RS3-13, 100 nM
  fold induction at 0.1 µM: 6.27
[2]; RS3-13, 1,000 nM
  fold induction at 1 µM: 42.4
RS1-10, HEK-293T cells
  fold-induction of luciferase: increasing fold-induction of luciferase with increasing concentrations of 24 A
RS1-10, NIH-3T3 cells
  fold-induction of luciferase: increasing fold-induction of luciferase with increasing concentrations of 24 A
